Data taken from patent US10689458B2, “Site specific HER2 antibody drug conjugates” (Pfizer Inc., priority 2015, dated 2020).
Entries after “also recorded” stand apart in the source; their conditions may differ. Where two headings read alike, the source gives them in different places. Square brackets hold non-standard residues; d marks the D form. Peptide text beside a SMILES is read from it. * marks the point of attachment. Dolaproine = CO[C@@H]([C@@H]1CCCN1)[C@@H](C)C(=O)O; Dil = CC[C@H](C)[C@H](NC)[C@@H](CC(=O)O)OC; Doe = c1ccc(C[C@H](N*)c2nccs2)cc1; Aib = CC(C)(N)C(=O)O

Columns and labels:
parental N87 cells = assay: Cytotoxicity on parental N87 cells (CellTiter Glo, 96 hours); format: cell-based; conditions: free payload, N87 cell line, read-out: Sensitivity to free payload (IC50), N87
Procedure: (§1) Cells were incubated for 96 hours in a humidified 37° C./5% CO2 incubator.

[1] = test system: T-DM1 resistant cells (N87-TDM); assay: Cytotoxicity on cells relapsed from T-DM1 treatment in vivo (CellTiter Glo, 96 hours); format: cell-based; conditions: for IC50: 96 h; for sensitivity of cells relapsed from T-DM1 treatment (in words): compared to parental N87
Procedure: as §1

N87-TM cells = assay: Cytotoxicity on T-DM1 resistant cells made in vitro, population not specified (MTS, 4 days); format: cell-based; conditions: N87-TM versus N87-parental
Procedure: (§2) N87 cells were passaged into two separate flasks and each flask was treated identically with respect to the resistance-generation protocol to enable biological duplicates. […] The procedure was intended to simulate the chronic, multi-cycle (on/off) dosing at maximally tolerated doses typically used for cytotoxic therapeutics in the clinic, followed by a recovery period. […] Data were collected from various thawed cryopreserved populations derived from a single selection, over approximately 1-2 years after model development to ensure consistency in the results.
(§3) ADCs were prepared as indicated in Example 3. Unconjugated maytansine analog (DM1) and auristatin analogs were prepared by Pfizer Worldwide Medicinal Chemistry (Groton, Conn.). Other standard-of-care chemotherapeutics were purchased from Sigma (St. Louis, Mo.). Cells were seeded in 96-well plates at low density, then treated the following day with ADCs and unconjugated payloads at 3-fold serial dilutions at 10 concentrations in duplicate. Cells were incubated for 4 days in a humidified 37° C./5% CO2 incubator. The plates were harvested by incubating with CellTiter® 96 AQueous One MTS Solution (Promega, Madison, Wis.) for 1.5 hours and absorbance measured on a Victor plate reader (Perkin-Elmer, Waltham, Mass.) at wavelength 490 nm. IC50 values were calculated using a four-parameter logistic model with XLfit (IDBS, Bridgewater, N.J.).

[2] = test system: 144580 breast patient-derived xenografts; conditions: all doses tested (1, 5, 3 and 6 mg/kg), IV Q4dx4
Procedure: (§4) For each model described below the first dose was given on Day 1. The tumors were measured at least once a week and their volume was calculated with the formula: tumor volume (mm^3)=0.5× (tumor width^2)(tumor length). The mean tumor volumes (±S.E.M.) for each treatment group were calculated having a maximum of 8-10 animals and a minimum of 6-8 animals to be included.
The 144580 breast patient-derived xenografts were subcutaneously passaged in vivo as fragments from animal to animal in nude (Nu/Nu) female mice. When the tumors reached a volume of 150 to 300 mm^3, they were staged to ensure uniformity of the tumor size among various treatment groups.

N87 tumors = assay: In vivo efficacy on parental N87 tumors in NSG mice; design: species or system mouse; conditions: 6 and 10 mg/kg, Q4Dx4, N87 model
Procedure: Mice were injected subcutaneously in the right flank with suspensions of either N87 or N87-TM cells (7.5×10^6 cells per injection, with 50% Matrigel). Mice were randomized into study groups when tumors reached ˜0.3 g (˜250 mm^3). […] Tumors were measured weekly and mass calculated as volume=(width×width×length)/2. Time-to-event analysis (tumor doubling) was conducted and significance evaluated by Log-rank (Mantel-Cox) test.

JIMT-1 breast xenografts = conditions: even at 6 mg/kg, IV Q4dx4
Procedure: as §4
To generate xenografts, nude (Nu/Nu) female mice were implanted subcutaneously with 5×10^6 JIMT-1 cells (DSMZ # ACC-589) in 50% Matrigel (BD Biosciences). When the tumors reached a volume of 200 to 250 mm^3, the tumors were staged to ensure uniformity of the tumor mass among various treatment groups.

[3] = test system: GA0044 patient-derived xenografts; assay: GA0044 patient-derived gastric cancer xenograft model; format: in vivo, mouse; conditions: IV Q4dx4, dose not stated
[4] = test system: 37622 patient-derived xenografts; conditions: 10 mg/kg, IV Q4dx4
Procedure: as §4
Several ADCs were tested in patient-derived Non-Small Cell Lung Cancer xenograft model of 37622 obtained in accordance with appropriate consent procedures. The 37622 patient-derived xenografts were subcutaneously passaged in vivo as fragments from animal to animal in nude (Nu/Nu) female mice. When the tumors reached a volume of 150 to 300 mm^3, they were staged to ensure uniformity of the tumor size among various treatment groups.

[5] = test system: N87 cell line xenograft tumors; assay: Bystander effect, immunohistochemistry (human IgG, pHH3) of N87 xenograft tumors; format: in vivo, mouse; conditions: single dose, T-DM1 6 mg/kg or T-vc0101 3 mg/kg, 96 hours
From the text: Tumor sections were stained for human IgG to detect ADC bound to tumor cells and phospho-histone H3 (pHH3) to detect mitotic cells as a readout of the proposed mechanism of action for the payloads of both ADCs.

N87 cells = conditions: read-out: IC80, payload concentration, approximate
Procedure: as §2, §3

[6] = test system: Her2-expressing cell lines BT474 and SKBR3; assay: ADCC assay (LDH release, NK-92 or human PBMC effector cells); format: cell-based; conditions: 1 μg/ml antibody or ADC, 6 hours
Procedure: In ADCC assays, Her2-expressing cell lines BT474 and SKBR3 were used as target cells while NK-92 cells (an interleukin-2 dependent natural killer cell line derived from peripheral blood mononuclear cells from a person by Conkwest) or human peripheral blood mononucleocytes (PBMC) isolated from the freshly drawn blood from a healthy donor (#179) were used as effector cells.
Target cells (BT474 or SKBR3) of 1×10^4 cells/100 μl/well were placed in 96-well plate and cultured overnight in RPMI1640 media at 37° C./5% CO2. […]
Assay plates were incubated at 37° C./5% CO2 for 6 hours and then equilibrated to room temperature. LDH release from cell lysis was measured using CytoTox-One™ reagent at an excitation wavelength of 560 nm and an emission wavelength of 590 nm. […]
“Experimental” corresponds to the signal measured in one of the condition described above.
“Effector spontaneous” corresponds to the signal measured in the presence of PBMC alone.
“Target spontaneous” corresponds to the signal measured in the presence of target cells alone.
“Target Maximum” corresponds to the signal measured in the presence of detergent-lysed target cells alone.

N87 xenografts = assay: T-DM1 resistance generated in vivo in N87 xenografts and follow-on treatment; design: species or system mouse; conditions: […] weekly, n=20
Procedure: Tumors were measured twice per week or weekly and mass calculated as volume=(width×width×length)/2.

N87 gastric xenografts = assay: N87 gastric xenograft model; format: in vivo, mouse; conditions: IV Q4dx4
Procedure: as §4
When the tumors reached a volume of 250 to 450 mm^3, the tumors were staged to ensure uniformity of the tumor mass among various treatment groups.

[7] = read-out: Sensitivity to free payload (IC50), N87-T-DM1_Ms2
[8] = read-out: Sensitivity to free payload (IC50), N87-T-DM1_Ms7
[9] = read-out: Sensitivity to free payload (IC50), N87-T-DM1_Ms17

| Compound | IC50 (parental N87 cells) | IC50 [1, 7] | IC50 [1, 8] | IC50 [1, 9] | sensitivity of N87-TM cells (in words) (N87-TM cells) | sensitivity of cells relapsed from T-DM1 treatment (in words) [1] | other results |
| --- | --- | --- | --- | --- | --- | --- | --- |
| CC[C@H](C)[C@@H]([C@@H](CC(=O)N1CCC[C@H]1[C@H](OC)[C@@H](C)C(=O)N[C@@H](Cc1ccccc1)c1nccs1)OC)N(C)C(=O)[C@@H](NC(=O)C(C)(C)N)C(C)C [Aur-0101] (H-[Aib]V[Dil][Dolaproine]-Doe) | 0.5 nM | 0.4 nM | 0.6 nM | 0.28 nM | – | – | – |
| COc1cc2cc(c1Cl)N(C)C(=O)C[C@H](OC(=O)[C@H](C)N(C)C(=O)CCS)[C@]1(C)O[C@H]1[C@H](C)[C@@H]1C[C@@](O)(NC(=O)O1)[C@H](OC)/C=C/C=C(\C)C2 [DM1] | – | – | – | – | retained sensitivity | – | – |
| CC[C@H](C)[C@@H]([C@@H](CC(=O)N1CCC[C@H]1[C@H](OC)[C@@H](C)C(=O)N[C@@H](Cc1ccccc1)c1nccs1)OC)N(C)C(=O)[C@@H](NC(=O)C(C)(C)N)C(C)C [compound 0101, 2-methylalanyl-N-[(3R,4S,5S)-3-methoxy-1-{(2S)-2-[(1R,2R)-1-methoxy-2-methyl-3-oxo-3-{[(1S)-2-phenyl-1-(1,3-thiazol-2-yl)ethyl]amino}propyl]pyrrolidin-1-yl}-5-methyl-1-oxoheptan-4-yl]-N-methyl-L-valinamide] (H-[Aib]V[Dil][Dolaproine]-Doe) | – | – | – | – | retained sensitivity | surprisingly sensitive; also recorded: not resistant | – |
| COc1cccc2c1C(=O)c1c(O)c3c(c(O)c1C2=O)C[C@@](O)(C(=O)CO)C[C@@H]3O[C@H]1C[C@H](N)[C@H](O)[C@H](C)O1 [doxorubicin] | 48 nM | 46 nM | 79 nM | 34 nM | lack of cross-resistance | No resistance | – |
| CC(=O)O[C@H]1C(=O)[C@@]2(C)[C@H]([C@H](OC(=O)c3ccccc3)[C@]3(O)C[C@H](OC(=O)[C@H](O)[C@@H](NC(=O)c4ccccc4)c4ccccc4)C(C)=C1C3(C)C)[C@]1(OC(C)=O)CO[C@@H]1C[C@@H]2O [paclitaxel] | – | – | – | – | lack of cross-resistance | – | – |
| T-DM1 | – | – | – | – | – | resistant | tumor response [2]: ineffective; mice in which tumor doubling was prevented for at least 60 days (N87 tumors): > 50%; tumor response (JIMT-1 breast xenografts): inactive; tumor growth compared to vehicle [3]: no appreciable difference in tumor growth as compared to vehicle treated tumors; tumor response [4]: only provided some therapeutic benefit; location of the majority of pHH3 positive tumor cells [5]: located near the ADC; IC80 (N87 cells): ~10 nM; ADCC activity (in words) [6]: conform the reported ADCC activities; mice that responded to initial T-DM1 treatment (N87 xenografts): 17 out of 20; tumor response (N87 gastric xenografts; 10 mg/kg): complete regression of tumors; tumor response (N87 gastric xenografts; 1 and 3 mg/kg): delayed tumor growth |
